Measured values reported in ChEMBL document CHEMBL1145498, “A systematic interaction map of validated kinase inhibitors with Ser/Thr kinases” (Proc Natl Acad Sci U S A, 2007).

molecular target: Serine/threonine-protein kinase pim-1 (Homo sapiens) (UniProt P11309)

| ΔTm | SMILES |
| --- | --- |
| -1.2 °C | O=[N+]([O-])c1ccc(-c2nc(-c3ccc(F)cc3)c(-c3ccncc3)[nH]2)cc1 |
| -0.4 °C | Oc1cccc(-c2nc(N3CCOCC3)c3oc4ncccc4c3n2)c1 |

molecular target: T1, Lymphokine-activated killer T-cell-originated protein kinase (Homo sapiens) (UniProt Q96KB5)
T1 sequence (whole entry): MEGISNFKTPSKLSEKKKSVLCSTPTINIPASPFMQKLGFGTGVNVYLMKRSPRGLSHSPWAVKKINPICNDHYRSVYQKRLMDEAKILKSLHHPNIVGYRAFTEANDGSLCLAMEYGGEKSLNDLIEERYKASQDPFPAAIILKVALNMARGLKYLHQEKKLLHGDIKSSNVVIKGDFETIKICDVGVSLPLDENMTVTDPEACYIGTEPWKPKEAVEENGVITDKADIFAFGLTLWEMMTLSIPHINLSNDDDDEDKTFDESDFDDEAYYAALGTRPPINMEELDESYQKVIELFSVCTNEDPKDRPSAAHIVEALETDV

| SMILES | ΔTm |
| --- | --- |
| O=[N+]([O-])c1ccc(-c2nc(-c3ccc(F)cc3)c(-c3ccncc3)[nH]2)cc1 | 0.3 °C |
| Oc1cccc(-c2nc(N3CCOCC3)c3oc4ncccc4c3n2)c1 | 0.5 °C |

molecular target: T2, Serine/threonine-protein kinase 17A (Homo sapiens) (UniProt Q9UEE5)
T2 sequence (whole entry): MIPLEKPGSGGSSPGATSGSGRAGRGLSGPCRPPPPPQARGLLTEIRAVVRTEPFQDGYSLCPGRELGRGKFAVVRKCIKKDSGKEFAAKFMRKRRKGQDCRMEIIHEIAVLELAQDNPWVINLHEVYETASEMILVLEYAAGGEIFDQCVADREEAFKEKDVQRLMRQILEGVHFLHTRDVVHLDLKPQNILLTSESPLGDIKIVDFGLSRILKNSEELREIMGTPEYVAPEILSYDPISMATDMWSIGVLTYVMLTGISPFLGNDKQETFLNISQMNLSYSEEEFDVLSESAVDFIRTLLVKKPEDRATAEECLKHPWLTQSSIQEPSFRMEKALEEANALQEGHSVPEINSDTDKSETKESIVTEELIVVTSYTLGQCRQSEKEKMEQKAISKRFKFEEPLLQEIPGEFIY

| ΔTm | SMILES |
| --- | --- |
| 0.6 °C | O=[N+]([O-])c1ccc(-c2nc(-c3ccc(F)cc3)c(-c3ccncc3)[nH]2)cc1 |
| 1.5 °C | Oc1cccc(-c2nc(N3CCOCC3)c3oc4ncccc4c3n2)c1 |

molecular target: Serine/threonine-protein kinase 26 (Homo sapiens) (UniProt Q9P289)
Sequence (Q9P289 2-416 limits assumed): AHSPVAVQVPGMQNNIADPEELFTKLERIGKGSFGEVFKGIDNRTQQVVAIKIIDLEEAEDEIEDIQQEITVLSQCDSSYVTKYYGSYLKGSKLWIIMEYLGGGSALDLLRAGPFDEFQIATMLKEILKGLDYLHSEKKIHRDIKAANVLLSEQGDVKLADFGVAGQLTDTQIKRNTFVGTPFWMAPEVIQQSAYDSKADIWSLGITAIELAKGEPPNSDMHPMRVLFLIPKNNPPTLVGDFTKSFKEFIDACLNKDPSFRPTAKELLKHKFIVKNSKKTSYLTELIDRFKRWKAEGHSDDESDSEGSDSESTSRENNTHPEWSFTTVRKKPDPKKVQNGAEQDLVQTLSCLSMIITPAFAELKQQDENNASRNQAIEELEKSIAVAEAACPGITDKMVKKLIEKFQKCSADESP

| ΔTm | SMILES |
| --- | --- |
| 0.7 °C | O=[N+]([O-])c1ccc(-c2nc(-c3ccc(F)cc3)c(-c3ccncc3)[nH]2)cc1 |
| 0.2 °C | Oc1cccc(-c2nc(N3CCOCC3)c3oc4ncccc4c3n2)c1 |

molecular target: Serine/threonine-protein kinase pim-2 (Homo sapiens, UniProt Q9P1W9)
Sequence (Q9P1W9 whole entry, looked up): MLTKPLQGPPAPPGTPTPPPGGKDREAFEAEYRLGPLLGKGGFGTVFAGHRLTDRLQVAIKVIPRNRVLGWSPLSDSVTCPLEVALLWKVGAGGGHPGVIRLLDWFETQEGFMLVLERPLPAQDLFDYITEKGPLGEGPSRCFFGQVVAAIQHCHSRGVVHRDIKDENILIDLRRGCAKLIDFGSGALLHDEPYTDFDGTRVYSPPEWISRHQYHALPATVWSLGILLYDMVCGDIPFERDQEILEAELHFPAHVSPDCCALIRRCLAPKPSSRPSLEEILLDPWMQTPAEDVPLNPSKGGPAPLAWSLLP

| ΔTm | SMILES |
| --- | --- |
| 0.5 °C | O=[N+]([O-])c1ccc(-c2nc(-c3ccc(F)cc3)c(-c3ccncc3)[nH]2)cc1 |
| 0.1 °C | Oc1cccc(-c2nc(N3CCOCC3)c3oc4ncccc4c3n2)c1 |

molecular target: Serine/threonine-protein kinase OSR1 (Homo sapiens) (UniProt O95747)
Sequence (O95747 2-527 limits assumed): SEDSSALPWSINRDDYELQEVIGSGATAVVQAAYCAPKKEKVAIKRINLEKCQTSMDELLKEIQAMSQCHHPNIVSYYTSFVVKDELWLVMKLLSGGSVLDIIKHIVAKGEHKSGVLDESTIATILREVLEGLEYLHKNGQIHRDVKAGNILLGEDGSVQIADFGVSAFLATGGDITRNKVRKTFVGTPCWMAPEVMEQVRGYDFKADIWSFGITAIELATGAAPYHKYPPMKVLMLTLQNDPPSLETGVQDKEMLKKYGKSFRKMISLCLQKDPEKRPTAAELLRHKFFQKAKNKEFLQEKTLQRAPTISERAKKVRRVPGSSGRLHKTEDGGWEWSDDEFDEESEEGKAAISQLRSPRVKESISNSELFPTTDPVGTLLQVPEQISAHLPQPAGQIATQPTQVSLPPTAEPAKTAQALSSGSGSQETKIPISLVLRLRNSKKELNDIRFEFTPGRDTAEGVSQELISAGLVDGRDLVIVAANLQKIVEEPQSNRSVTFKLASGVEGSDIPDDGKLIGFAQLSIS

| ΔTm | SMILES |
| --- | --- |
| -0.3 °C | O=[N+]([O-])c1ccc(-c2nc(-c3ccc(F)cc3)c(-c3ccncc3)[nH]2)cc1 |
| 2 °C | Oc1cccc(-c2nc(N3CCOCC3)c3oc4ncccc4c3n2)c1 |

molecular target: Serine/threonine-protein kinase PAK 5 (Homo sapiens) (UniProt Q9P286)
Sequence (Q9P286 whole entry, looked up): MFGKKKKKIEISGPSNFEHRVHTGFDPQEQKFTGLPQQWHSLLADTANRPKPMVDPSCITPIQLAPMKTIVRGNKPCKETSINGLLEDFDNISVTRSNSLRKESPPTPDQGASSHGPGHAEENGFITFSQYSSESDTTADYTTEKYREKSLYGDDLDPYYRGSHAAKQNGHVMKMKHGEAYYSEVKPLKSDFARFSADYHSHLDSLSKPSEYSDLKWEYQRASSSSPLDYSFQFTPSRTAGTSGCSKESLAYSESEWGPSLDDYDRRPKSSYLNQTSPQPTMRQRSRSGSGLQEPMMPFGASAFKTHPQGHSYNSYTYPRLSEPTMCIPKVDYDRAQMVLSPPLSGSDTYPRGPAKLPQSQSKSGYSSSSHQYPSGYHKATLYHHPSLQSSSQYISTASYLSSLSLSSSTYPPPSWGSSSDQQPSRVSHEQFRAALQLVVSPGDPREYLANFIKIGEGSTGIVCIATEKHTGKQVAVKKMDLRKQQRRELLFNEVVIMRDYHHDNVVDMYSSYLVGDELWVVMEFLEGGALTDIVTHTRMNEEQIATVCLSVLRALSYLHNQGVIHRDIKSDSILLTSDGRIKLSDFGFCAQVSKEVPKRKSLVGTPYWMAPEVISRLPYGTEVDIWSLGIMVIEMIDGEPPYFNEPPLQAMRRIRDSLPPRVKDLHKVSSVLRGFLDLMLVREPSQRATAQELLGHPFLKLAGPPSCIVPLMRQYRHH

| ΔTm | SMILES |
| --- | --- |
| 1 °C | O=[N+]([O-])c1ccc(-c2nc(-c3ccc(F)cc3)c(-c3ccncc3)[nH]2)cc1 |
| 0.8 °C | Oc1cccc(-c2nc(N3CCOCC3)c3oc4ncccc4c3n2)c1 |

molecular target: Serine/threonine-protein kinase pim-3 (Homo sapiens) (UniProt Q86V86)

| ΔTm | SMILES |
| --- | --- |
| 0.7 °C | O=[N+]([O-])c1ccc(-c2nc(-c3ccc(F)cc3)c(-c3ccncc3)[nH]2)cc1 |
| 0.6 °C | Oc1cccc(-c2nc(N3CCOCC3)c3oc4ncccc4c3n2)c1 |

molecular target: Calcium/calmodulin-dependent protein kinase type II subunit gamma (Homo sapiens) (UniProt Q13555)
Sequence (Q13555 whole entry): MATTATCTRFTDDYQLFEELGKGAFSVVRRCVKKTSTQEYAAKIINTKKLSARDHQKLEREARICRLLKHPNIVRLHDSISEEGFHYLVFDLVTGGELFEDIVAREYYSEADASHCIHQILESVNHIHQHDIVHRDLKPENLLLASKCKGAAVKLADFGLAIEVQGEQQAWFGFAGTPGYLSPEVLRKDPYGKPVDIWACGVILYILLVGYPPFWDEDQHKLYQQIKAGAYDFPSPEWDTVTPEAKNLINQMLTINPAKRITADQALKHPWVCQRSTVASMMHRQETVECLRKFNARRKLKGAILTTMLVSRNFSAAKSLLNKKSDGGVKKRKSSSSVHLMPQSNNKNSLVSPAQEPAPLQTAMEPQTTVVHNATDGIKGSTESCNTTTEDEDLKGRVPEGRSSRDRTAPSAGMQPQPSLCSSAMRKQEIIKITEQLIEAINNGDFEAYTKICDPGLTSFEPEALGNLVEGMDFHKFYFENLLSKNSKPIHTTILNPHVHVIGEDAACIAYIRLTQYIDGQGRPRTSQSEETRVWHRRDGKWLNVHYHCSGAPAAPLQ

| ΔTm | SMILES |
| --- | --- |
| -0.3 °C | O=[N+]([O-])c1ccc(-c2nc(-c3ccc(F)cc3)c(-c3ccncc3)[nH]2)cc1 |
| 0.1 °C | Oc1cccc(-c2nc(N3CCOCC3)c3oc4ncccc4c3n2)c1 |

molecular target: Serine/threonine-protein kinase 26 (Homo sapiens) (UniProt Q9P289); remark: another data set of the same source

| ΔTm | SMILES |
| --- | --- |
| -1.4 °C | O=[N+]([O-])c1ccc(-c2nc(-c3ccc(F)cc3)c(-c3ccncc3)[nH]2)cc1 |
| 0.9 °C | Oc1cccc(-c2nc(N3CCOCC3)c3oc4ncccc4c3n2)c1 |

molecular target: T3, Serine/threonine-protein kinase VRK1 (Homo sapiens) (UniProt Q99986)
T3 sequence (whole entry): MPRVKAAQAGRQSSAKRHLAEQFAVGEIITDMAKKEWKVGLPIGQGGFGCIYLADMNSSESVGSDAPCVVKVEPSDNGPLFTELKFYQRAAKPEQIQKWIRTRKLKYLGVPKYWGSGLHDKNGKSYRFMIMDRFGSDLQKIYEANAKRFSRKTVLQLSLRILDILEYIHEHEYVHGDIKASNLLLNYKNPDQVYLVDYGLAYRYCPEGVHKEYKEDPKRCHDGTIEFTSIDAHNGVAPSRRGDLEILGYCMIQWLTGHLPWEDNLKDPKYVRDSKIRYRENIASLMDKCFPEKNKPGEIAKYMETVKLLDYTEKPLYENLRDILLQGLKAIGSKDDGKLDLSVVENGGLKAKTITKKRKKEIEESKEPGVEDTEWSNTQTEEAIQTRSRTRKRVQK

| ΔTm | SMILES |
| --- | --- |
| 0 °C | O=[N+]([O-])c1ccc(-c2nc(-c3ccc(F)cc3)c(-c3ccncc3)[nH]2)cc1 |
| -0.1 °C | Oc1cccc(-c2nc(N3CCOCC3)c3oc4ncccc4c3n2)c1 |

molecular target: Dual specificity protein kinase CLK2 (Homo sapiens) (UniProt P49760)
Sequence (P49760 whole entry, looked up): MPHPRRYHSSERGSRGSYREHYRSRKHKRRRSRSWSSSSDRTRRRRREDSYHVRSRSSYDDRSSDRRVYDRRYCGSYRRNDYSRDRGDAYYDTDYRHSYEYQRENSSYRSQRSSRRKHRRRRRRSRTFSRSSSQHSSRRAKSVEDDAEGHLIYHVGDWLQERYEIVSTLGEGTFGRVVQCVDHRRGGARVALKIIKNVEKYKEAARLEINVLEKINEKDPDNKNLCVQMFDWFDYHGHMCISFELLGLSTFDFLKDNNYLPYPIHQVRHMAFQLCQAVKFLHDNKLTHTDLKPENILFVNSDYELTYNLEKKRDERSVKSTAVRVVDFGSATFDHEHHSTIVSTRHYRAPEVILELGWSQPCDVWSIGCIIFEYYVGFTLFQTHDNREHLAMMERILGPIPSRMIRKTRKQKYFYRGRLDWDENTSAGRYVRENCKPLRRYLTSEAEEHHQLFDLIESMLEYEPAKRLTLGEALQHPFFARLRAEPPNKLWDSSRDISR

| ΔTm | SMILES |
| --- | --- |
| 0.1 °C | O=[N+]([O-])c1ccc(-c2nc(-c3ccc(F)cc3)c(-c3ccncc3)[nH]2)cc1 |
| 0 °C | Oc1cccc(-c2nc(N3CCOCC3)c3oc4ncccc4c3n2)c1 |

molecular target: Serine/threonine-protein kinase 25 (Homo sapiens) (UniProt O00506)
Sequence (O00506 whole entry, looked up): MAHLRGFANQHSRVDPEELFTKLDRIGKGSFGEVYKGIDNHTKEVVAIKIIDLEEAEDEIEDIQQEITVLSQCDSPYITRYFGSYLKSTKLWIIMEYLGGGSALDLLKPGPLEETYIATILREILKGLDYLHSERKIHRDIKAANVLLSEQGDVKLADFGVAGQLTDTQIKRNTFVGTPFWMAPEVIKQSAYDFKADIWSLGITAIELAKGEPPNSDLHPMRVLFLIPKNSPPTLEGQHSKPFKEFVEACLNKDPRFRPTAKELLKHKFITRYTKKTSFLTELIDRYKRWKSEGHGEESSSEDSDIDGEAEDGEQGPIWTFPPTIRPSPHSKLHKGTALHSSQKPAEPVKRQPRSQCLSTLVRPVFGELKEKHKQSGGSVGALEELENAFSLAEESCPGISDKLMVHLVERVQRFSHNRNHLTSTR

| ΔTm | SMILES |
| --- | --- |
| 0.9 °C | O=[N+]([O-])c1ccc(-c2nc(-c3ccc(F)cc3)c(-c3ccncc3)[nH]2)cc1 |
| -0.6 °C | Oc1cccc(-c2nc(N3CCOCC3)c3oc4ncccc4c3n2)c1 |

molecular target: Cyclin-dependent kinase 2 (Homo sapiens, UniProt P24941)

| ΔTm | SMILES |
| --- | --- |
| 1.8 °C | O=[N+]([O-])c1ccc(-c2nc(-c3ccc(F)cc3)c(-c3ccncc3)[nH]2)cc1 |
| 0.4 °C | Oc1cccc(-c2nc(N3CCOCC3)c3oc4ncccc4c3n2)c1 |

molecular target: Ribosomal protein S6 kinase alpha-3 (Homo sapiens) (UniProt P51812)

| ΔTm | SMILES |
| --- | --- |
| 0.7 °C | O=[N+]([O-])c1ccc(-c2nc(-c3ccc(F)cc3)c(-c3ccncc3)[nH]2)cc1 |
| -0.6 °C | Oc1cccc(-c2nc(N3CCOCC3)c3oc4ncccc4c3n2)c1 |

molecular target: Mitogen-activated protein kinase 11 (Homo sapiens, UniProt Q15759)
Sequence (Q15759 whole entry): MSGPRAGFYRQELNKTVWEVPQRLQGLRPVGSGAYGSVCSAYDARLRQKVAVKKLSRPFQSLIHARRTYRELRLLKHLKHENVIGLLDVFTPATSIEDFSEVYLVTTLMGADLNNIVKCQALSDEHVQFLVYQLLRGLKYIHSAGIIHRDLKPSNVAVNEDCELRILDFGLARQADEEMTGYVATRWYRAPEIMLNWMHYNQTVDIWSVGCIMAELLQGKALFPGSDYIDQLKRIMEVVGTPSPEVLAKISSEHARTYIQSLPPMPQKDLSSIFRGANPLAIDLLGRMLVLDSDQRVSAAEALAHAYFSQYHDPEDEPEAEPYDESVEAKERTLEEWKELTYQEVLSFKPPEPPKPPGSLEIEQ

| ΔTm | SMILES |
| --- | --- |
| 14.8 °C | O=[N+]([O-])c1ccc(-c2nc(-c3ccc(F)cc3)c(-c3ccncc3)[nH]2)cc1 |
| 1 °C | Oc1cccc(-c2nc(N3CCOCC3)c3oc4ncccc4c3n2)c1 |

molecular target: T4, Myotonin-protein kinase (Homo sapiens) (UniProt Q09013)
T4 sequence (whole entry): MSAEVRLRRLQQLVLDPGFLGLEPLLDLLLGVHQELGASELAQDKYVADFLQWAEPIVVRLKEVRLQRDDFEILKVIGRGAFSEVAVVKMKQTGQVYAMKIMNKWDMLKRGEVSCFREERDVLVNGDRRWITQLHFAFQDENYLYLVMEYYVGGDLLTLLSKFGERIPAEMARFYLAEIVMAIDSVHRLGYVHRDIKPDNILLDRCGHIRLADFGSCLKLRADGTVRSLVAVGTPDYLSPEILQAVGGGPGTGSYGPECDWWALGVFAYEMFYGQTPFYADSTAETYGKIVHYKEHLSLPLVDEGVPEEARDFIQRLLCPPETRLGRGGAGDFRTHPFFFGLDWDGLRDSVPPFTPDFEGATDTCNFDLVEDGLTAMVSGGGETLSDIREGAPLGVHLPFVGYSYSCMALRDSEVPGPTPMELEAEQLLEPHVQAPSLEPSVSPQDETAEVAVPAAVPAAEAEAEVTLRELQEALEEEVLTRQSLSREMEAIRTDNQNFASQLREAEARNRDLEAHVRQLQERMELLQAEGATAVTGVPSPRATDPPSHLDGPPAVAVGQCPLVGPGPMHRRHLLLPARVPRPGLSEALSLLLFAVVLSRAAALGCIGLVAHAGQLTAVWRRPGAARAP

| ΔTm | SMILES |
| --- | --- |
| -0.2 °C | O=[N+]([O-])c1ccc(-c2nc(-c3ccc(F)cc3)c(-c3ccncc3)[nH]2)cc1 |
| -0.7 °C | Oc1cccc(-c2nc(N3CCOCC3)c3oc4ncccc4c3n2)c1 |

molecular target: Calcium/calmodulin-dependent protein kinase type II subunit delta (Homo sapiens) (UniProt Q13557)
Sequence (Q13557 whole entry): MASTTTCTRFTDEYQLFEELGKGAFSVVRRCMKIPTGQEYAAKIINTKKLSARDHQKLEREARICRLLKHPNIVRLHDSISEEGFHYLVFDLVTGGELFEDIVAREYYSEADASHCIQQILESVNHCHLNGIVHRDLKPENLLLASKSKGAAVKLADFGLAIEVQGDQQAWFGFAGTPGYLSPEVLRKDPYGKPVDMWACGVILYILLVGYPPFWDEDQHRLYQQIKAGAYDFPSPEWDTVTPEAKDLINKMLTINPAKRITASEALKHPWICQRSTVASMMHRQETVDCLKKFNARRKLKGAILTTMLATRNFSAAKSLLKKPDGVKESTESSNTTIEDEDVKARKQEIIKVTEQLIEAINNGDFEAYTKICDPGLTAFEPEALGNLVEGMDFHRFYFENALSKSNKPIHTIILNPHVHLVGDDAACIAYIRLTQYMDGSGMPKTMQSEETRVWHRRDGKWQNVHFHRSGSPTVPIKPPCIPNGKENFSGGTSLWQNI

| ΔTm | SMILES |
| --- | --- |
| 0.1 °C | O=[N+]([O-])c1ccc(-c2nc(-c3ccc(F)cc3)c(-c3ccncc3)[nH]2)cc1 |
| -0.6 °C | Oc1cccc(-c2nc(N3CCOCC3)c3oc4ncccc4c3n2)c1 |

molecular target: Dual specificity mitogen-activated protein kinase kinase 2 (Homo sapiens, UniProt P36507)

| ΔTm | SMILES |
| --- | --- |
| 0.3 °C | O=[N+]([O-])c1ccc(-c2nc(-c3ccc(F)cc3)c(-c3ccncc3)[nH]2)cc1 |
| 0.3 °C | Oc1cccc(-c2nc(N3CCOCC3)c3oc4ncccc4c3n2)c1 |

molecular target: Calcium/calmodulin-dependent protein kinase type 1D (Homo sapiens) (UniProt Q8IU85)
Sequence (Q8IU85 whole entry, looked up): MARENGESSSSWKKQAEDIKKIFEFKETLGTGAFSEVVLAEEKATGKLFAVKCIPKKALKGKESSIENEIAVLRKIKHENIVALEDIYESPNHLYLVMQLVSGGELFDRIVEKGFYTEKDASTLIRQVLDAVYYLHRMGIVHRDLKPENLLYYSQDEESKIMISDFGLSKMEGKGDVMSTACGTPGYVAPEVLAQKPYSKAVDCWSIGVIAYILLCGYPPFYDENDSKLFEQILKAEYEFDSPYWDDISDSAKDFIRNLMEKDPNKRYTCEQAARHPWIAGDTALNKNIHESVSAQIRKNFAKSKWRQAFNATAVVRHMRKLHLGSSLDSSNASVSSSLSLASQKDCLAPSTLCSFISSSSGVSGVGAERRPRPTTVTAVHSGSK

| ΔTm | SMILES |
| --- | --- |
| 0.2 °C | O=[N+]([O-])c1ccc(-c2nc(-c3ccc(F)cc3)c(-c3ccncc3)[nH]2)cc1 |
| 0.4 °C | Oc1cccc(-c2nc(N3CCOCC3)c3oc4ncccc4c3n2)c1 |

molecular target: Death-associated protein kinase 3 (Homo sapiens) (UniProt O43293)

| SMILES | ΔTm |
| --- | --- |
| O=[N+]([O-])c1ccc(-c2nc(-c3ccc(F)cc3)c(-c3ccncc3)[nH]2)cc1 | 0.1 °C |
| Oc1cccc(-c2nc(N3CCOCC3)c3oc4ncccc4c3n2)c1 | 0 °C |
